Test results reported in patent US20250134860A1, “NOVEL COMPOUND, AND COMPOSITION FOR PREVENTING, ALLEVIATING OR TREATING BACTERIAL INFLAMMATION AND INFLAMMASOME-MEDIATED DISEASES, COMPRISING SAME AS ACTIVE INGREDIENT” (Quorum Bio Co., Ltd., priority 2022, published 2025).

Assays:
[1] = test system: P. gingivalis; assay: Inhibitory effect on P. gingivalis biofilm formation (crystal violet, OD590nm); type: cell-based, Porphyromonas gingivalis
[2] = test system: E. coli (KCTC 2571 (ATCC 8739)); assay: Inhibitory effect on E. coli biofilm formation; type: cell-based, Escherichia coli; conditions: 0.006-4.8 μg/ml; 48 hours; compared with control (CT)
Procedure: The inhibitory effect of the compound of Example 1-2 on biofilm formation in E. coli (KCTC 2571 (ATCC 8739); available from the Korean Collection for Oral Microbiology (KCOM)) was confirmed.
Sterilized cover glass slips (round, 12 mm radius) were placed individually at a bottom of each well of a cell culture plate (24-well plate) using forceps, and the compound of Example 1-2 was diluted in the medium (LB medium) to be cultured with bacteria so that the final concentrations were 0.006 μg/ml, 0.06 μg/ml, 0.6 μg/ml, 1.2 μg/ml, 2.4 μg/ml, and 4.8 μg/ml.
The prepared culture medium was dispensed into a cell culture plate in which glass slips were placed, and the bacteria were inoculated to a concentration of 2×10^7 cells/ml. […]
The biofilm in which bacteria cultured for each group were formed on glass slips was stained with 1% crystal violet solution for 15 minutes, and then washed three times with PBS (phosphate buffered saline) solution, and decolorized with acetone-alcohol (20:80, vol/vol). After the decolorizing solution containing crystal violet was put in 200 μl increments in a 96-well microplate for each group, the absorbance (OD590nm) was measured using an absorbance microplate reader (Epoch2, Bio-Tek, USA), and the biofilm formation levels were compared.

Cc1ccc(C(=C2c3ccccc3C(=O)N2C)c2ccc(C)cc2)cc1 [Example 1-2, 3-(di-p-tolylmethylene)-2-methylisoindolin-1-one]
biofilm formation of P. gingivalis increased by DPD ([1]; DPD 10 μM + compound 0.002, 0.02, 0.2, 2 μM, 48 hours, anaerobic, OD590nm): inhibited in a concentration-dependent manner
ability to inhibit biofilm formation of P. gingivalis at the same concentration ([1]; Example 1-2 against comparative example compound, 0.002-2 μM with DPD): better ability to inhibit biofilm formation than the comparative example compound
biofilm formation of E. coli [2]: significantly suppressed in a concentration-dependent manner
